For 21 compounds, IC50 results are on record in ChEMBL document CHEMBL1151478, “ent-Kaurane diterpenoids from Isodon scoparius” (J Nat Prod, 2009).

Type in all cases: functional, cell-based
Experiment [1] has as its system NB-4. Kind of experiment: Cytotoxicity against human NB4 cells after 48 hrs by WST-8 assay. Particulars: NB-4, 48 h. For orientation: Tetrazolium dyes change colour on reduction, which living cells bring about.
For experiment [2], the system named is A549. Briefly: Cytotoxicity against human A549 cells after 48 hrs by WST-8 assay. Particulars: A549, 48 h.
The test system of experiment [3] is MCF7. Kind of experiment: Cytotoxicity against human MCF7 cells after 48 hrs by WST-8 assay. As to conditions: MCF7, 48 h.
Experiment [4] deals with SH-SY5Y. Briefly: Cytotoxicity against human SH-SY5Y cells after 48 hrs by WST-8 assay.
The subject of experiment [5] is PC-3. Briefly: Cytotoxicity against human PC3 cells after 48 hrs by WST-8 assay. As to conditions: PC-3, 48 h.

As to `CC(=O)CC[C@H]1C(=O)[C@@]23[C@H](O)C[C@@H]4[C@@](C)(CO)CCC[C@@]4(C)[C@@H]2C(=O)[C@H](O)[C@H]1[C@H]3O`, the IC50 in experiment [1], in experiment [2], in experiment [3], in experiment [4] and in experiment [5] was more than 10 µM each time.

For the compound `COc1cc([C@@H]2c3cc4c(cc3[C@@H](O[C@@H]3O[C@@H]5CO[C@@H](C)O[C@H]5[C@H](O)[C@H]3O)[C@H]3COC(=O)[C@H]23)OCO4)cc(OC)c1O` [ETOPOSIDE], the IC50 in experiment [1] was 1.3 µM; in experiment [2] it was 1.7 µM; in experiment [4], 1.7 µM; in experiment [5], 13.6 µM.

As for `C=C1C(=O)[C@@]23[C@H](O)C[C@@H]4C(C)(C)CC[C@H](O)[C@@]4(C)[C@@H]2C[C@H](O)[C@@H]1[C@H]3O` [EXCISANIN A], the IC50 was 8.2 µM in experiment [1]; more than 10 µM in experiment [2]; more than 10 µM in experiment [3]; more than 10 µM in experiment [4]; more than 10 µM in experiment [5].

For the compound `C=C1C(=O)[C@@]23CC[C@@H]4[C@@](C)(CO)CC[C@H](O)[C@@]4(C)[C@@H]2CC[C@@H]1[C@H]3O` [EXCISANIN K], the IC50 is 8.7 µM in experiment [1]; more than 10 µM in experiment [2]; more than 10 µM in experiment [3]; more than 10 µM in experiment [4]; more than 10 µM in experiment [5].

As to `C=C1C(=O)[C@@]23[C@H](O)C[C@@H]4[C@@](C)(CO)CCC[C@@]4(C)[C@@H]2C(=O)C[C@@H]1[C@H]3O` [HENRYINE A], the IC50 in experiment [1] is 2.3 µM; in experiment [2], more than 10 µM; in experiment [3], more than 10 µM; in experiment [4], 5.1 µM; in experiment [5], 7 µM.

Turning to `CC1(C)CCC[C@]2(C)[C@@H]1C[C@@H](O)[C@@]13C(=O)[C@@]4(CO4)[C@@H]([C@H]1O)[C@@H](O)C(=O)[C@@H]23` [ISOSCOPARIN D], the IC50 in experiment [1], in experiment [2], in experiment [3], in experiment [4] and in experiment [5] was more than 10 µM each time.

`C=C1[C@@H]2[C@@H](O)[C@H](O)[C@H]3[C@]4(C)CCCC(C)(C)[C@H]4CC(=O)[C@@]3([C@@H]1OC(C)=O)[C@@H]2O` [ISOSCOPARIN F]: the IC50 is 2.2 µM in experiment [1]; 9.9 µM in experiment [2]; 3.9 µM in experiment [3]; 9.2 µM in experiment [4]; more than 10 µM in experiment [5].

Turning to `C=C1[C@@H](O)[C@@]23[C@H](O)C[C@@H]4[C@@](C)(CO)CCC[C@@]4(C)[C@@H]2C(=O)C[C@@H]1[C@H]3O` [ISOSCOPARIN H], the IC50 in experiment [1], in experiment [2], in experiment [3], in experiment [4] and in experiment [5] was more than 10 µM each time.

As for `C=C1C(=O)[C@@]23[C@H](O)C[C@H]4[C@@](C)(CCC[C@]4(C)C=O)[C@@H]2[C@@H](O)C[C@@H]1[C@H]3O` [ISOSCOPARIN I], the IC50 was 4.4 µM in experiment [1]; more than 10 µM in experiment [2]; more than 10 µM in experiment [3]; more than 10 µM in experiment [4]; more than 10 µM in experiment [5].

In the case of `C=C1C(=O)[C@@]23[C@H](O)C[C@@H]4C(C)(C)CCC[C@@]4(C)[C@@H]2C[C@H](O)[C@@H]1[C@H]3O` [ISOSCOPARIN L], the IC50 is 0.7 µM in experiment [1]; 6.4 µM in experiment [2]; 2.2 µM in experiment [3]; 6.8 µM in experiment [4]; more than 10 µM in experiment [5].

Turning to `C=C1C(=O)[C@@]23[C@H](O)C[C@@H]4C(C)(C)CC[C@H](O)[C@@]4(C)[C@@H]2CC[C@@H]1[C@H]3O` [KAMEBANIN], the IC50 was 0.9 µM in experiment [1]; 7.3 µM in experiment [2]; 8.4 µM in experiment [3]; 8.9 µM in experiment [4]; more than 10 µM in experiment [5].

In the case of `C=C1[C@@H](O)[C@]23[C@H](O)[C@H]1CC[C@H]2[C@@]12CO[C@@]3(O)[C@@H](O)[C@@H]1C(C)(C)CC[C@@H]2OC(C)=O` [LASIOKAURINOL], the IC50 in experiment [1], in experiment [2], in experiment [3], in experiment [4] and in experiment [5] was more than 10 µM throughout.

In the case of `CC(=O)O[C@H]1C(=O)[C@@]2(C)[C@H]([C@H](OC(=O)c3ccccc3)[C@]3(O)C[C@H](OC(=O)[C@H](O)[C@@H](NC(=O)c4ccccc4)c4ccccc4)C(C)=C1C3(C)C)[C@]1(OC(C)=O)CO[C@@H]1C[C@@H]2O` [PACLITAXEL], the IC50 was 0.1 µM in experiment [1]; 0.1 µM in experiment [2]; 0.1 µM in experiment [3]; 0.2 µM in experiment [4]; 0.2 µM in experiment [5].

Consider `C=C1C(=O)[C@@]23[C@H](O)C[C@@H]4C(C)(C)CCC[C@@]4(C)[C@@H]2C(=O)[C@H](O)[C@@H]1[C@H]3O` [PHYLLOSTACHYSIN D], for which the IC50 in experiment [1] was 0.3 µM; in experiment [2], more than 10 µM; in experiment [3], more than 10 µM; in experiment [4] it was more than 10 µM; in experiment [5], more than 10 µM.

With `C=C1C(=O)[C@@]23CC[C@@H]4C(C)(C)CC[C@H](O)[C@@]4(C)[C@@H]2[C@@H](O)C[C@@H]1[C@H]3O` [PHYLLOSTACHYSIN H], the IC50 in experiment [1], in experiment [2], in experiment [3], in experiment [4] and in experiment [5] was more than 10 µM in each case.

As for `C=C1C(=O)[C@@]23[C@H](O)C[C@@H]4C(C)(C)CC[C@H](O)[C@@]4(C)[C@@H]2[C@@H](O)C[C@@H]1[C@H]3O` [RABDOINFLEXIN B], the IC50 in experiment [1], in experiment [2], in experiment [3], in experiment [4] and in experiment [5] was more than 10 µM each time.

Consider `C=C1C(=O)[C@@]23[C@H](O)C[C@@H]4C(C)(C)CCC[C@@]4(C)[C@@H]2[C@@H](O)[C@H](O)[C@@H]1[C@H]3OC(C)=O` [RABDOKUNMIN A], for which the IC50 in experiment [1] is 2.7 µM; in experiment [2] it was 2.8 µM; in experiment [3], more than 10 µM; in experiment [4], more than 10 µM; in experiment [5] it was more than 10 µM.

As to `C=C1C(=O)[C@@]23[C@H](O)C[C@@H]4[C@@](C)(CO)CCC[C@@]4(C)[C@@H]2C[C@H](O)[C@@H]1[C@H]3O` [RABDOKUNMIN C], the IC50 in experiment [1], in experiment [2], in experiment [3], in experiment [4] and in experiment [5] was more than 10 µM throughout.

Regarding `C=C1C(=O)[C@@]23[C@H](O)C[C@@H]4[C@@](C)(CO)CCC[C@@]4(C)[C@@H]2[C@@H](O)C[C@@H]1[C@H]3O` [RABDOKUNMIN D], the IC50 in experiment [1], in experiment [2], in experiment [3], in experiment [4] and in experiment [5] was more than 10 µM in each case.

Turning to `C=C1C(=O)[C@@]23[C@H](O)C[C@@H]4[C@@](C)(CO)CCC[C@@]4(C)[C@@H]2C(=O)[C@H](O)[C@@H]1[C@H]3O` [RABDOLOXIN A], the IC50 in experiment [1], in experiment [2], in experiment [3], in experiment [4] and in experiment [5] was more than 10 µM throughout.

Regarding `C=C1C(=O)[C@@]23[C@H](O)C[C@@H]4C(C)(C)CCC[C@@]4(C)[C@@H]2[C@@H](O)[C@H](O)[C@@H]1[C@H]3O` [RABDOLOXIN B], the IC50 in experiment [1] was 2.8 µM; in experiment [2], 1.7 µM; in experiment [3] it was more than 10 µM; in experiment [4], more than 10 µM; in experiment [5] it was more than 10 µM.

A word on the IC50: it is the concentration at which inhibition is half-maximal. Read a high IC50 as weaker potency.
